Measured values as given in patent US20220323487A1, “METERED DOSE FOR DEMODEX AND DISORDERS RELATED THERETO” (Azura Ophthalmics Ltd., priority 2019, published 2022).

Legend:
[1] = system: Demodex folliculorum mites; assay: In vitro assessment of anti-demodectic properties: viability of Demodex mites on epilated eyelashes; conditions: SeS2 4%
[2] = Method: The composition is prepared by the combination of selenium disulfide (SeS2) in combination with Petrolatum base (and in the absence of surface acting agents). Compositions comprising various concentrations of selenium disulfide are prepared, such as 0.1 wt. %, 0.5 wt. %, 1 wt. %, 1.5 wt. %, 2 wt. %, and 2.5 wt. %.
Various compositions prepared as described above are administered to the eye or eyelid (e.g., margin thereof) of albino rabbits. Various compositions are administered to distinct cohorts using various treatment protocols, such as based on frequency of administration (e.g., once daily, twice daily, every other day, and once weekly) and volume of administration (e.g., <25 μL, […] per administration). Compositions lacking selenium disulfide are administered to a separate cohort to establish a control.
Albino rabbits are evaluated, and an accurate volume of the composition is ejected from a device (e.g., micropipette) and is delivered to the lower eyelid of the rabbits. In one example, the volume is ˜25 μL (equivalent to 20 mg in weight). The rabbits are examined daily.
2.5% SeS2 at a dosing volume of 25 μL is administered to the animals.
Therefore, a reduced dose of 5 μL (equivalent to 4 mg) is placed on the lid of the rabbits.

[3] = rabbit, in vivo
Excerpt: On a subsequent study to Example 6, concentrations ranging from 0.5 wt. % to 2.5 wt. % were used on New-Zealand rabbits, once daily to twice weekly for 28 days.

Remark: listed apart in the source
[4] = cited from earlier work
[5] = rabbit, in vivo; cited from earlier work
[6] = in vivo; cited from earlier work
[7] = 25 μL (20 mg) of 2.5% SeS2 with petrolatum, lower eyelid of right eye

For `S=[Se]=S` [SeS2, selenium disulfide], which “death of the mites” value [1] is on record?
Its value is “caused death of the mites”.

And the “clinical or microscopic findings” value ([2]; 0.5%, 1.0% or 2.5%, twice weekly or once daily, dose volume 5 μL, summary, species not stated)?
Its value is “no clinical or microscopic findings”.

And the “keratitis, including red and swollen eyelids, animals affected” value ([2]; rabbit, in vivo)?
Its value is “all animals”.

What about the “ocular effects at reduced dose” value ([2]; rabbit, in vivo) of the same compound?
The value was “no evidence for any of the effects”.

What about the “ophthalmic observations versus previous study” value [3] of the same compound?
Its value is “safer”.

And the “finding on clinical examination” value [7]?
Its value is “keratitis is observed with multiple punctate over the center exposed part of the cornea”.

What about the “time to reported pain” value [7] of the same compound?
The value was “About 4 hours”.

And the “time to resolution of keratitis” value (treated with lubricants and local NSAID)?
Its value is ≤ 48 h.

What about the “tolerability of ointment on the lids” value ([4]; 0.5 percent ointment, all patients complained of burning of the conjunctiva (Rychener)) of the same compound?
The value was “too strong”.

And the epithelial keratitis ([4]; human, in vivo)?
Its epithelial keratitis is 6 cases.

What about the “keratitis, conjunctivitis with erythematous and swollen lids” value ([4]; human, in vivo) of the same compound?
The value was “Two”.

What about the “time to onset of ocular effects after application” value [5] of the same compound?
Its value is ≤ 2 h.

And the “irritancy to rabbit dermis” value [6]?
Its value is “did not appear to be irritant”.
